Some test systems named below: UO-31 renal; HCC-2998 colon; SF-539 CNS; RXF 393 renal; NCI-H460 lung; U251 CNS; SK-MEL-28 melanoma; MALME-3M melanoma; MCF7 breast; SK-MEL-5 melanoma.
What all share (test): DTP human tumour cell line panel, 48 h

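Cells were grown in 96-well plates and exposed to each compound for 48 hours at five concentrations; endpoints were interpolated linearly between bracketing concentrations, or set to the highest concentration if not reached. Abbreviation: GI50, concentration required for 50% inhibition of growth. The concentration for full growth arrest is given as TGI.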 Where only a bound is given, the exact number is not on record here.

For the compound `CC(c1ccccc1)/[N+]([O-])=C/c1ccccc1` (centres undefined), the TGI with UO-31 renal, in the test with HCC-2998 colon, in the test with SF-539 CNS, with RXF 393 renal, in the test with NCI-H460 lung and in the test with U251 CNS was more than 100 µM in each case. For the same compound, the TGI in the test on SK-MEL-28 melanoma was more than 100 µM.
Regarding `CC1OC1C(=O)C1(O)C(C)C(O)C23OC2(C(O)c2c(O)cccc2C3=O)C1O` (centres undefined), the TGI in the test with UO-31 renal came out at 0.565 µM; with HCC-2998 colon, 0.401 µM; with SF-539 CNS, 0.276 µM; in the test with MALME-3M melanoma, 0.247 µM; with MCF7 breast, 2.01 µM; in the test on RXF 393 renal it was 0.599 µM. Moreover, the TGI with SK-MEL-5 melanoma was 0.534 µM; with NCI-H460 lung, 0.565 µM; in the test on U251 CNS it was 1.09 µM; in the test on SK-MEL-28 melanoma, 0.682 µM.
`CN1CCN(c2cc(-c3cc4ccccc4o3)oc(=O)c2C#N)CC1`: the TGI with UO-31 renal, in the test on HCC-2998 colon, in the test on SF-539 CNS, with MALME-3M melanoma, with RXF 393 renal and in the test on SK-MEL-5 melanoma was more than 100 µM each time. The concentration for total growth inhibition (TGI) in the test on NCI-H460 lung, in the test on U251 CNS and with SK-MEL-28 melanoma was more than 100 µM throughout.
Turning to `O=C(NN1C(=O)CSC1c1ccc(C(F)(F)F)cc1)c1ccncc1` (centres undefined), the concentration for total growth inhibition (TGI) in the test with UO-31 renal, in the test on HCC-2998 colon, with SF-539 CNS, in the test with MALME-3M melanoma, in the test with MCF7 breast and with RXF 393 renal was more than 100 µM in each case. Also, the concentration for total growth inhibition (TGI) in the test on SK-MEL-5 melanoma, in the test on NCI-H460 lung, with U251 CNS and in the test on SK-MEL-28 melanoma was more than 100 µM each time.
`O=C(O)CC1OCC=C2CN3CCC45C6=CC(=O)C(=O)C([N+](=O)[O-])=C6NC4C1C2CC35` (centres undefined): the TGI in the test on UO-31 renal, with HCC-2998 colon, with SF-539 CNS, in the test on MALME-3M melanoma, in the test with MCF7 breast and with RXF 393 renal was more than 100 µM each time. The concentration for total growth inhibition (TGI) with SK-MEL-5 melanoma, in the test on NCI-H460 lung, in the test on U251 CNS and with SK-MEL-28 melanoma was more than 100 µM throughout.
Consider `C[C@]12CCc3sc(Nc4ccc(O)cc4)nc3C1=CC[C@@H]1[C@@H]2CC[C@]2(C)C(=O)CC[C@@H]12`, for which the GI50 is 1.54 µM in the test with UO-31 renal; 4.11 µM in the test with HCC-2998 colon; 1.76 µM in the test on SF-539 CNS; 1.81 µM in the test on MALME-3M melanoma; 1.66 µM with MCF7 breast; 4.33 µM with SK-MEL-5 melanoma. Also, the GI50 was 3.01 µM in the test on NCI-H460 lung, 3.06 µM with U251 CNS and 2.08 µM with SK-MEL-28 melanoma. In addition, the TGI was 2.9 µM in the test on UO-31 renal; more than 100 µM with HCC-2998 colon; 3.59 µM in the test on SF-539 CNS; 4.03 µM in the test with MALME-3M melanoma; 4.26 µM with MCF7 breast; 31.9 µM with SK-MEL-5 melanoma. In addition, the TGI was 10.5 µM with NCI-H460 lung, 21.9 µM in the test with U251 CNS and 4.75 µM in the test with SK-MEL-28 melanoma.
Turning to `CC(CCC(=O)O)C1CCC2C3C(O)CC4CC(O)CCC4(C)C3CC(O)C12C` (centres undefined), the total growth inhibition concentration (TGI) with UO-31 renal, with HCC-2998 colon, in the test with SF-539 CNS, in the test on MALME-3M melanoma, with MCF7 breast and in the test on RXF 393 renal was more than 100 µM each time. The TGI in the test on SK-MEL-5 melanoma, in the test on NCI-H460 lung, in the test with U251 CNS and in the test with SK-MEL-28 melanoma was more than 100 µM throughout.
`O=C(O)CC1(CC(=O)O)Nc2ccccc2SC1=O`: the TGI in the test on UO-31 renal, in the test on HCC-2998 colon, in the test on MALME-3M melanoma, with MCF7 breast, with RXF 393 renal and in the test with SK-MEL-5 melanoma was more than 100 µM each time. The TGI in the test on NCI-H460 lung, in the test with U251 CNS and with SK-MEL-28 melanoma was more than 100 µM each time.
Consider `C/C(=N\NC(=S)Nc1ccc(C)cc1)c1nc2ncccc2[nH]1`, for which the TGI in the test with UO-31 renal turned out to be 4.05 µM; with HCC-2998 colon, 20.2 µM; in the test on SF-539 CNS, 5.71 µM; with MALME-3M melanoma, 37.5 µM; in the test with MCF7 breast, 13.5 µM; in the test on SK-MEL-5 melanoma, 4.73 µM. Further, the TGI with NCI-H460 lung was determined as 13.6 µM; in the test on U251 CNS, 15.4 µM; with SK-MEL-28 melanoma it was 18.4 µM.
Regarding `COc1ccc(-c2c3c(nc4nc(SC)nc(SC)c24)CCCC3)cc1OC`, the concentration for total growth inhibition (TGI) in the test on UO-31 renal, in the test with HCC-2998 colon, in the test with SF-539 CNS, in the test with MALME-3M melanoma, with MCF7 breast and with RXF 393 renal was more than 100 µM each time. Also, the TGI in the test with SK-MEL-5 melanoma, in the test on NCI-H460 lung, in the test with U251 CNS and in the test with SK-MEL-28 melanoma was more than 100 µM in each case.
Take `CCSc1nc(=[N+]2CCCC2)ss1`: the TGI with UO-31 renal was more than 100 µM; in the test with HCC-2998 colon, more than 100 µM; with SF-539 CNS, more than 85.6 µM; in the test with MALME-3M melanoma, more than 100 µM; in the test with MCF7 breast, 41.1 µM; in the test with RXF 393 renal it was more than 83.3 µM. For the same compound, the concentration for total growth inhibition (TGI) with SK-MEL-5 melanoma is 3.55 µM; in the test with NCI-H460 lung, more than 100 µM; with U251 CNS, more than 100 µM; with SK-MEL-28 melanoma it was more than 100 µM.
Turning to `COc1cc2c(cc1OC)C(C)N(C)c1c-2c(OC(C)=O)cc2cc(OC)c(OC)cc12` (centres undefined), the TGI is more than 92.1 µM in the test with UO-31 renal; more than 60.1 µM in the test with HCC-2998 colon; 40.6 µM in the test with SF-539 CNS; 14.8 µM in the test on MALME-3M melanoma; 40.2 µM with MCF7 breast; 31.1 µM in the test on RXF 393 renal. The total growth inhibition concentration (TGI) is 15.8 µM in the test with SK-MEL-5 melanoma, 27.6 µM in the test with NCI-H460 lung, more than 68.5 µM in the test on U251 CNS and more than 60.1 µM in the test on SK-MEL-28 melanoma.
`O=C1OCC/C1=C/c1ccc(N=Nc2c(O)ccc3ccccc23)cc1`: the TGI with UO-31 renal was 37.3 µM; in the test with HCC-2998 colon, 39.7 µM; with SF-539 CNS, 36.6 µM; in the test on MALME-3M melanoma, 32.3 µM; in the test with MCF7 breast, more than 100 µM; with RXF 393 renal, 36.8 µM. Moreover, the TGI in the test on SK-MEL-5 melanoma worked out at 50.8 µM; in the test on NCI-H460 lung it was 47.3 µM; with U251 CNS, 39.2 µM; in the test on SK-MEL-28 melanoma, 38.4 µM.
For `NC(=S)N/N=C1\c2ccccc2CCC1CCC1(O)CCc2ccccc2C1=O` (centres undefined), the total growth inhibition concentration (TGI) in the test on UO-31 renal worked out at 29.4 µM; in the test with SF-539 CNS, 29.5 µM; in the test with MALME-3M melanoma, 36.7 µM; with MCF7 breast it was 46.4 µM; with RXF 393 renal, 36.3 µM; in the test with SK-MEL-5 melanoma, 28.3 µM. Moreover, the TGI in the test on NCI-H460 lung is 32.1 µM; in the test on U251 CNS, more than 100 µM; in the test with SK-MEL-28 melanoma it was 45.8 µM.
With `CCc1nnc(-c2nsc3ccccc23)s1`, the total growth inhibition concentration (TGI) in the test with UO-31 renal, in the test on HCC-2998 colon, in the test on SF-539 CNS, with RXF 393 renal, in the test on SK-MEL-5 melanoma and in the test on NCI-H460 lung was more than 100 µM in each case. The total growth inhibition concentration (TGI) in the test with U251 CNS and with SK-MEL-28 melanoma was more than 100 µM each time.

The record behind these values is PubChem BioAssay (NCI).
